Measured values taken from the Deep4Chem optical property database.
Values belong to the molecule of their own block, whether it stands above or below them.

Test: photoluminescence quantum yield (fraction); solvent given as SMILES

SMILES: O=c1oc2ccc(Cl)cc2cc1-c1cc2cc(Cl)ccc2o1
photoluminescence quantum yield (in CS(C)=O): 0.2

SMILES: C=C(C)C(CN1C(=O)c2cccc3cccc(c23)C1=O)OO (stereo unspecified)
photoluminescence quantum yield (in CCO): 0.002

SMILES: C#CCn1c2ccccc2c2cc(/C=C/c3c(Cl)c(C)c4n3[B-](F)(F)[N+]3=C(C)C(Cl)=C(C)C3=C4c3ccc(I)cc3)ccc21
photoluminescence quantum yield (in CC#N): 0.43 | photoluminescence quantum yield (in CS(C)=O): 0.33 | photoluminescence quantum yield (in ClC(Cl)Cl): 0.62

SMILES: CC(=O)c1ccn2c3c(c(/C=C/c4cc[n+](C)cc4)c2c1)CN(C)C3=O
photoluminescence quantum yield (in O): 0.041

SMILES: COc1c2ccccc2c(OC)c2c(C#Cc3ccccc3)c3cc4sccc4cc3c(C#Cc3ccccc3)c12
photoluminescence quantum yield (in C1CCOC1): 0.13 | photoluminescence quantum yield (in Cc1ccccc1): 0.1 | photoluminescence quantum yield (in ClCCl): 0.11

SMILES: CN(C)c1ccc(C(=O)Nc2ccc(F)cc2)cc1
photoluminescence quantum yield (in C1CCCCC1): 0.0011 | photoluminescence quantum yield (in C1CCOC1): 0.0053 | photoluminescence quantum yield (in CC#N): 0.0104 | photoluminescence quantum yield (in CCOCC): 0.0034

SMILES: N#Cc1cc2ccc(O)cc2oc1=O
photoluminescence quantum yield (in C1CCCCC1): 0.0105 | photoluminescence quantum yield (in C1CCOC1): 0.00102 | photoluminescence quantum yield (in CC#N): 0.00059 | photoluminescence quantum yield (in CCOC(C)=O): 0.0597 | photoluminescence quantum yield (in CS(C)=O): 0.00123 | photoluminescence quantum yield (in ClC(Cl)Cl): 0.0509

SMILES: Cc1ccc(-c2c3ccc([nH]3)c3nc(c(-c4ccc(C#N)cc4)c4ccc([nH]4)c4ccc([nH]4)c(-c4ccc(C)cc4)c4ccc2o4)C=C3)cc1
photoluminescence quantum yield (in C1CCOC1): 0.179 | photoluminescence quantum yield (in Cc1ccccc1): 0.166 | photoluminescence quantum yield (in c1ccccc1): 0.175

SMILES: CC1(C)Cc2c(c3ccccc3c3nc4c(nc23)c2c(c3ccccc34)OC(C)(C)C2)O1
photoluminescence quantum yield (in C1CCCCC1): 0.43 | photoluminescence quantum yield (in C1COCCO1): 0.53 | photoluminescence quantum yield (in CC#N): 0.39 | photoluminescence quantum yield (in CC(C)O): 0.57 | photoluminescence quantum yield (in CCCCCC): 0.4 | photoluminescence quantum yield (in ClC(Cl)Cl): 0.43 | photoluminescence quantum yield (in c1ccccc1): 0.39

SMILES: CC[N+](CC)=c1ccc2nc3c(cc(NCCC(=O)NC(C)C(=O)OC)c4ccccc43)oc-2c1 (stereo unspecified)
photoluminescence quantum yield (in CCO): 0.18 | photoluminescence quantum yield (in O): 0.13

SMILES: COC(=O)c1nc(-c2ccccc2)oc1C
photoluminescence quantum yield (in C1CCCCC1): 0.36 | photoluminescence quantum yield (in CC#N): 0.38 | photoluminescence quantum yield (in CCO): 0.47 | photoluminescence quantum yield (in CCOC(C)=O): 0.44 | photoluminescence quantum yield (in O): 0.34

SMILES: Fc1c(F)c(F)c([B-]2(c3c(F)c(F)c(F)c(F)c3F)Oc3c(ccc4c5c(ccc34)C=[N+](c3ccccc3)[B-](c3c(F)c(F)c(F)c(F)c3F)(c3c(F)c(F)c(F)c(F)c3F)O5)C=[N+]2c2ccccc2)c(F)c1F
photoluminescence quantum yield (in Cc1ccccc1): 0.81 | photoluminescence quantum yield (in ClCCl): 0.8

SMILES: CN(C)c1ccc(C2=Nc3scc(-c4ccc([N+](=O)[O-])cc4)[n+]3[B-](F)(F)O2)cc1
photoluminescence quantum yield (in C1CCOC1): 0.001 | photoluminescence quantum yield (in CC#N): 0.001 | photoluminescence quantum yield (in Cc1ccccc1): 0.001 | photoluminescence quantum yield (in ClCCl): 0.001

SMILES: CC1(C)c2ccccc2-c2cc3c4ccccc4n(-c4ccc(-c5nc(-c6ccccc6)nc(-c6ccccc6)n5)cc4)c3cc21
photoluminescence quantum yield (in O=P(c1ccccc1)(c1ccccc1)c1ccccc1Oc1ccccc1P(=O)(c1ccccc1)c1ccccc1): 0.933

SMILES: Cc1ccc2nc3[nH]c(=O)[nH]c(=O)c3nc2c1
photoluminescence quantum yield (in CC#N): 0.025 | photoluminescence quantum yield (in ClCCCl): 0.034

SMILES: CN(C)c1cc(C#N)c(N(C)C)c(C#N)c1
photoluminescence quantum yield (in C1CCCCC1): 0.37 | photoluminescence quantum yield (in C1CCOC1): 0.54 | photoluminescence quantum yield (in C1COCCO1): 0.55 | photoluminescence quantum yield (in CC1COC(=O)O1): 0.58 | photoluminescence quantum yield (in CC#N): 0.53 | photoluminescence quantum yield (in CC(C)=O): 0.51 | photoluminescence quantum yield (in CC(C)OC(C)C): 0.39 | photoluminescence quantum yield (in CCC#N): 0.47 | photoluminescence quantum yield (in CCC(C)C): 0.37 | photoluminescence quantum yield (in CCCCCC): 0.38 | photoluminescence quantum yield (in CCCCCCCCO): 0.58 | photoluminescence quantum yield (in CCCCCOCCCCC): 0.46 | photoluminescence quantum yield (in CCCCOC(C)=O): 0.52 | photoluminescence quantum yield (in CCCCOCCCC): 0.45 | photoluminescence quantum yield (in CCCOCCC): 0.55 | photoluminescence quantum yield (in CCO): 0.51 | photoluminescence quantum yield (in CCOC(C)=O): 0.49 | photoluminescence quantum yield (in CCOCC): 0.46 | photoluminescence quantum yield (in CN(C)C=O): 0.57 | photoluminescence quantum yield (in CO): 0.52 | photoluminescence quantum yield (in CS(C)=O): 0.55 | photoluminescence quantum yield (in Cc1ccccc1): 0.55 | photoluminescence quantum yield (in ClCCCl): 0.52 | photoluminescence quantum yield (in ClCCl): 0.57 | photoluminescence quantum yield (in N#Cc1ccccc1): 0.5 | photoluminescence quantum yield (in O): 0.47 | photoluminescence quantum yield (in OCC(O)CO): 0.54 | photoluminescence quantum yield (in c1ccccc1): 0.57

SMILES: CCCCNC(=O)c1nc2c(N(C)C)nc(N(C)C)nc2n1Cc1ccccc1
photoluminescence quantum yield (in C1COCCO1): 0.95 | photoluminescence quantum yield (in CC#N): 0.95 | photoluminescence quantum yield (in CO): 0.89 | photoluminescence quantum yield (in ClCCl): 0.87

SMILES: CCCCCCn1c2cc(/C=C/c3cccs3)ccc2c2ccc(/C=C/c3cccs3)cc21
photoluminescence quantum yield (in ClC(Cl)Cl): 0.89

SMILES: CN1/C(=C\C=C\C2=C3C=CC(c4ccccc4)=[N+]3[B-](F)(F)n3c2ccc3-c2ccccc2)C(C)(C)c2ccccc21
photoluminescence quantum yield (in CC#N): 0.1

SMILES: CO[B-]1(OC)n2c(C)cc(C)c2C(c2ccc(I)cc2)=C2C(C)=CC(C)=[N+]21
photoluminescence quantum yield (in ClC(Cl)Cl): 0.52

SMILES: CCc1c(C)c2n(c1C)[B-](F)(F)[N+]1=C(C=C3c4ccccc4-c4ccccc43)C=CC1=C2C
photoluminescence quantum yield (in C1CCCCC1): 0.73

SMILES: COc1cc(C#Cc2ccccc2)c(C#Cc2ccccc2)cc1OC
photoluminescence quantum yield (in CC#N): 0.81

SMILES: c1ccc(-c2cccc3ncc(-c4ccccc4)n23)cc1
photoluminescence quantum yield (in ClCCl): 0.24

SMILES: Fc1cc(F)c2cc3cccc[n+]3cc2c1
photoluminescence quantum yield (in O): 0.3

SMILES: CCOC(=O)COc1ccc(/C=C/c2c(CC)c(C)c3n2[B-](F)(F)[N+]2=C(c4[nH]c(C)c(CC)c4C)c4ccccc4C2=C3C)cc1
photoluminescence quantum yield (in C1CCOC1): 0.28 | photoluminescence quantum yield (in CC#N): 0.09 | photoluminescence quantum yield (in CCCCCC): 0.74 | photoluminescence quantum yield (in CO): 0.2 | photoluminescence quantum yield (in Cc1ccccc1): 0.71 | photoluminescence quantum yield (in ClCCl): 0.68

SMILES: CC1=C(c2cccs2)C(C)=[N+]2C1=C(c1ccc(OS(=O)(=O)c3ccc([N+](=O)[O-])cc3[N+](=O)[O-])cc1)c1c(C)c(-c3cccs3)c(C)n1[B-]2(F)F
photoluminescence quantum yield (in Cc1ccccc1): 0.059

SMILES: CN(C)CCN(Cc1c2ccccc2c(CN(CCN(C)C)c2ccc([N+](=O)[O-])cc2[N+](=O)[O-])c2ccccc12)c1ccc([N+](=O)[O-])cc1[N+](=O)[O-]
photoluminescence quantum yield (in C1CCOC1): 0.0052 | photoluminescence quantum yield (in CC#N): 0.00153 | photoluminescence quantum yield (in CC(C)=O): 0.0012 | photoluminescence quantum yield (in CCO): 0.0136 | photoluminescence quantum yield (in CN(C)C=O): 0.00067 | photoluminescence quantum yield (in CO): 0.0387

SMILES: c1ccc2c(c1)[nH]c1ccccc12
photoluminescence quantum yield (in CC#N): 0.62 | photoluminescence quantum yield (in CCCCCC): 0.53 | photoluminescence quantum yield (in CCO): 0.44

SMILES: CCCCCCCCOc1cc(/C=C/c2ccncc2)c(OCCCCCCCC)cc1/C=C/c1ccncc1
photoluminescence quantum yield (in ClCCl): 0.634

SMILES: Cc1ccc2nc3c(=O)[nH]c(=O)[nH]c3nc2c1C
photoluminescence quantum yield (in CC#N): 0.019

SMILES: CCCCN(CCCC)c1ccc2c(c1)C#CC#Cc1cc(N(CCCC)CCCC)ccc1C#Cc1cc(c3cc1C#Cc1ccc(C(F)(F)F)cc1C#CC#Cc1cc(C(F)(F)F)ccc1C#C3)C#C2
photoluminescence quantum yield (in ClCCl): 0.15

SMILES: Cn1c(=O)c(/N=N/c2ccc(Nc3ccccc3)c(S(=O)(=O)O)c2)c(O)c2ccccc21
photoluminescence quantum yield (in CS(C)=O): 0.04

SMILES: CCCCN1C(=O)C(=C/C=C/C=C2N(CCCC)c3ccccc3N2CCCC)C(=O)N(CCCC)C1=S
photoluminescence quantum yield (in CCCCCC): 0.115 | photoluminescence quantum yield (in CCO): 0.013 | photoluminescence quantum yield (in CN(C)C=O): 0.023 | photoluminescence quantum yield (in Cc1ccccc1): 0.168 | photoluminescence quantum yield (in ClC(Cl)Cl): 0.046 | photoluminescence quantum yield (in ClCCl): 0.032

Second part, led by results:

photoluminescence quantum yield (in ClCCl): 0.148
SMILES: CCCCCCCCCCCCN1C(=O)c2c(c3ccc4cc(-c5ccccc5)c(OC)cc4c3c3c2ccc2cc(-c4ccccc4)c(OC)cc23)C1=O

photoluminescence quantum yield (in ClC(Cl)Cl): 0.28
SMILES: COc1ccc(N(c2ccc(OC)cc2)c2ccc(-c3ccc(-c4ccc(-c5cccs5)c5nsnc45)s3)cc2)cc1

photoluminescence quantum yield (in ClCCl): 0.65
SMILES: CN(C)c1ccc(C#Cc2cc(C#Cc3ccc(N(C)C)cc3)c3ccc4c(C#Cc5ccc(C(F)(F)F)cc5)cc(C#Cc5ccc(N(C)C)cc5)c5ccc2c3c54)cc1

photoluminescence quantum yield (in ClC(Cl)Cl): 0.64
SMILES: CCCC1=CC2=C(c3c(C)cc(C)cc3C)c3cc(CCC)c(-c4ccc5ccc6cccc7ccc4c5c67)n3[B-](F)(F)[N+]2=C1c1ccc2ccc3cccc4ccc1c2c34

photoluminescence quantum yield (in C1CCOC1): 0.0003
SMILES: C(=C1c2ccccc2-c2ccccc21)c1ccc(C=C2c3ccccc3-c3ccccc32)cc1

photoluminescence quantum yield (in C1CCOC1): 0.7
SMILES: CCCCCCCCCc1c2ccccc2cc2c1oc1c3c(c4ccccc4c12)-c1c(c2oc4cc5ccccc5cc4c2c2ccccc12)OCO3

photoluminescence quantum yield (in CCCCCC): 0.24
SMILES: CC(C)(C)c1cc2ccc3cc(C(C)(C)C)cc4c(N(c5ccccc5)c5ccccc5)cc(c1)c2c34

photoluminescence quantum yield (in CC#N): 0.61 | photoluminescence quantum yield (in ClCCl): 0.99
SMILES: COc1ccc(-c2cc3c(s2)c(C(C)=O)cc(=O)n3Cc2ccccc2)cc1

photoluminescence quantum yield (in ClCCl): 0.127
SMILES: c1ccc(-c2nc(-c3ccc(N(c4ccccc4)c4ccccc4)cc3)n3ccccc23)cc1

photoluminescence quantum yield (in C1CCCCC1): 0.54 | photoluminescence quantum yield (in CCOC(C)=O): 0.51 | photoluminescence quantum yield (in CO): 0.36
SMILES: c1ccc2c(-n3c4ccccc4c4ccccc43)cccc2c1

photoluminescence quantum yield (in ClC(Cl)Cl): 0.678
SMILES: COc1ccc(C2=Cc3c4ccccc4c4ccccc4[n+]3[B-](F)(F)O2)cc1

photoluminescence quantum yield (in ClCCl): 0.153
SMILES: CCCCCCCCCCCCN1C(=O)c2c(c3ccc4cc(-c5ccc(F)cc5)c(OC)cc4c3c3c2ccc2cc(-c4ccc(F)cc4)c(OC)cc23)C1=O

photoluminescence quantum yield (in CN(C)C=O): 0.26
SMILES: CC(=O)NC(Cc1ccc(O)cc1)C(=O)O[Si]1(OC(=O)C(Cc2ccc(O)cc2)NC(C)=O)n2c3c4ccccc4c2/N=C2N=C(/N=c4/c5ccccc5/c(n41)=N/C1=NC(=N\3)/c3ccccc31)c1ccccc1\2 (stereo unspecified)

photoluminescence quantum yield (in ClCCl): 0.4
SMILES: CCN(CC)c1ccc2c(-c3ccccc3C(=O)O)c3c([o+]c2c1)/C(=C/c1nc(-c2ccccc2)n2ccccc12)CCC3

photoluminescence quantum yield (in ClCCl): 0.4
SMILES: COc1ccc2c(c1)-c1cc3c(cc1[Si]2(c1ccccc1)c1ccccc1)-c1ccccc1[Si]3(c1ccccc1)c1ccccc1

photoluminescence quantum yield (in C1CCOC1): 0.057
SMILES: N#Cc1cc(-n2c3ccccc3c3cc(Br)ccc32)c(-n2c3ccccc3c3cc(Br)ccc32)cc1C#N
photoluminescence quantum yield (in c1ccc2c(c1)c1ccccc1n2-c1ccc(-c2ccc(-n3c4ccccc4c4ccccc43)cc2)cc1): 0.543

photoluminescence quantum yield (in ClC(Cl)Cl): 0.1
SMILES: Cc1ccc(N(c2ccc(C)cc2)c2ccc(-c3ccc(C=C(C#N)C#N)o3)cc2)cc1
